# According to PubChem BioAssay (NCI):
#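 These data come from cells grown in 96-well plates and exposed to compound for 48 hours at five concentrations. The concentration for 50% growth inhibition is given as GI50. TGI denotes the concentration required for complete inhibition of growth.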
# Key:
# Assay in all cases: NCI-60 cell line screen, 48 h
# K-562 leukemia = system: K-562 leukemia
# OVCAR-4 ovarian = system: OVCAR-4 ovarian
# NCI-H460 lung = system: NCI-H460 lung
# A549 NSCLC = system: A549 NSCLC
# MALME-3M melanoma = system: MALME-3M melanoma
# M14 melanoma = system: M14 melanoma
# HOP-92 NSCLC = system: HOP-92 NSCLC
# SK-MEL-5 melanoma = system: SK-MEL-5 melanoma
# KM12 colon = system: KM12 colon
# SF-295 CNS = system: SF-295 CNS
# NCI-H522 lung = system: NCI-H522 lung
# SK-MEL-2 melanoma = system: SK-MEL-2 melanoma
# SNB-19 CNS = system: SNB-19 CNS
# HOP-62 NSCLC = system: HOP-62 NSCLC
# RPMI-8226 leukemia = system: RPMI-8226 leukemia
# SK-OV-3 ovarian = system: SK-OV-3 ovarian
# SNB-75 CNS = system: SNB-75 CNS
# UO-31 renal = system: UO-31 renal
# COLO 205 colon = system: COLO 205 colon
# BT-549 breast = system: BT-549 breast
# ACHN renal = system: ACHN renal
# OVCAR-5 ovarian = system: OVCAR-5 ovarian
# HS 578T breast = system: HS 578T breast
# HL-60(TB) leukemia = system: HL-60(TB) leukemia
# T-47D breast = system: T-47D breast
# SW-620 colon = system: SW-620 colon
# HCT-15 colon = system: HCT-15 colon
# SF-539 CNS = system: SF-539 CNS
# SK-MEL-28 melanoma = system: SK-MEL-28 melanoma
# U251 CNS = system: U251 CNS
# NCI/ADR-RES ovarian = system: NCI/ADR-RES ovarian
# OVCAR-3 ovarian = system: OVCAR-3 ovarian
# MDA-MB-231 breast = system: MDA-MB-231 breast
# DU-145 prostate = system: DU-145 prostate
# HCT-116 colon = system: HCT-116 colon
# CAKI-1 renal = system: CAKI-1 renal
# SF-268 CNS = system: SF-268 CNS
# NCI-H226 lung = system: NCI-H226 lung
# LOX IMVI melanoma = system: LOX IMVI melanoma
# HT29 colon = system: HT29 colon
# HCC-2998 colon = system: HCC-2998 colon
# RXF 393 renal = system: RXF 393 renal
# SN12C renal = system: SN12C renal
# MOLT-4 leukemia = system: MOLT-4 leukemia
# CCRF-CEM leukemia = system: CCRF-CEM leukemia
# MDA-MB-435 = system: MDA-MB-435
# UACC-62 melanoma = system: UACC-62 melanoma
# MCF7 breast = system: MCF7 breast
# PC-3 prostate = system: PC-3 prostate
# OVCAR-8 ovarian = system: OVCAR-8 ovarian
# TK-10 renal = system: TK-10 renal
# EKVX NSCLC = system: EKVX NSCLC
# A498 renal = system: A498 renal
# UACC-257 melanoma = system: UACC-257 melanoma
# 786-0 renal = system: 786-0 renal
# IGROV1 ovarian = system: IGROV1 ovarian
# SR leukemia = system: SR leukemia
smiles,measurement,setting,value
CS(=O)(=O)c1nccc(-c2c(-c3ccc(F)c(OCc4ccc(F)cc4)c3)nc3sccn23)n1,GI50,K-562 leukemia,21 µM
same,TGI,K-562 leukemia,72.8 µM
same,GI50,OVCAR-4 ovarian,17.8 µM
same,TGI,OVCAR-4 ovarian,44.6 µM
same,GI50,NCI-H460 lung,13.5 µM
same,TGI,NCI-H460 lung,27.4 µM
same,GI50,A549 NSCLC,17.7 µM
same,TGI,A549 NSCLC,34.6 µM
same,GI50,MALME-3M melanoma,24.5 µM
same,TGI,MALME-3M melanoma,71 µM
same,GI50,M14 melanoma,18.5 µM
same,TGI,M14 melanoma,36.7 µM
same,GI50,HOP-92 NSCLC,5.43 µM
same,TGI,HOP-92 NSCLC,21.5 µM
same,GI50,SK-MEL-5 melanoma,17.4 µM
same,TGI,SK-MEL-5 melanoma,33.1 µM
same,GI50,KM12 colon,17.6 µM
same,TGI,KM12 colon,33.8 µM
same,GI50,SF-295 CNS,23 µM
same,TGI,SF-295 CNS,52 µM
same,GI50,NCI-H522 lung,13.4 µM
same,TGI,NCI-H522 lung,30.3 µM
same,GI50,SK-MEL-2 melanoma,15.2 µM
same,TGI,SK-MEL-2 melanoma,29.6 µM
same,GI50,SNB-19 CNS,16 µM
same,TGI,SNB-19 CNS,30 µM
same,GI50,HOP-62 NSCLC,16.2 µM
same,TGI,HOP-62 NSCLC,30.9 µM
same,GI50,RPMI-8226 leukemia,20 µM
same,TGI,RPMI-8226 leukemia,54.7 µM
same,GI50,SK-OV-3 ovarian,93.6 µM
same,TGI,SK-OV-3 ovarian,> 100 µM
same,GI50,SNB-75 CNS,16.4 µM
same,TGI,SNB-75 CNS,> 100 µM
same,GI50,UO-31 renal,15.1 µM
same,TGI,UO-31 renal,36.3 µM
same,GI50,COLO 205 colon,17.6 µM
same,TGI,COLO 205 colon,34 µM
same,GI50,BT-549 breast,21.2 µM
same,TGI,BT-549 breast,63.6 µM
same,GI50,ACHN renal,16.6 µM
same,TGI,ACHN renal,30.9 µM
same,GI50,OVCAR-5 ovarian,67.6 µM
same,TGI,OVCAR-5 ovarian,> 100 µM
same,GI50,HS 578T breast,21.2 µM
same,TGI,HS 578T breast,72.2 µM
same,GI50,HL-60(TB) leukemia,3.89 µM
same,TGI,HL-60(TB) leukemia,15.3 µM
same,GI50,T-47D breast,11.1 µM
same,TGI,T-47D breast,26.2 µM
same,GI50,SW-620 colon,16.1 µM
same,TGI,SW-620 colon,31.8 µM
same,GI50,HCT-15 colon,13.8 µM
same,TGI,HCT-15 colon,31.4 µM
same,GI50,SF-539 CNS,17.8 µM
same,TGI,SF-539 CNS,36.7 µM
same,GI50,SK-MEL-28 melanoma,16.1 µM
same,TGI,SK-MEL-28 melanoma,29.8 µM
same,GI50,U251 CNS,17.8 µM
same,TGI,U251 CNS,37.9 µM
same,GI50,NCI/ADR-RES ovarian,18 µM
same,TGI,NCI/ADR-RES ovarian,38.7 µM
same,GI50,OVCAR-3 ovarian,13.1 µM
same,TGI,OVCAR-3 ovarian,25.8 µM
same,GI50,MDA-MB-231 breast,18.1 µM
same,TGI,MDA-MB-231 breast,39.4 µM
same,GI50,DU-145 prostate,3.33 µM
same,TGI,DU-145 prostate,11.1 µM
same,GI50,HCT-116 colon,14.4 µM
same,TGI,HCT-116 colon,27.5 µM
same,GI50,CAKI-1 renal,14.8 µM
same,TGI,CAKI-1 renal,28 µM
same,GI50,SF-268 CNS,15.9 µM
same,TGI,SF-268 CNS,32.8 µM
same,GI50,NCI-H226 lung,28.3 µM
same,TGI,NCI-H226 lung,> 100 µM
same,GI50,LOX IMVI melanoma,10.2 µM
same,TGI,LOX IMVI melanoma,24.5 µM
same,GI50,HT29 colon,21.6 µM
same,TGI,HT29 colon,61.6 µM
same,GI50,HCC-2998 colon,14.2 µM
same,TGI,HCC-2998 colon,27.9 µM
same,GI50,RXF 393 renal,14.3 µM
same,TGI,RXF 393 renal,29.2 µM
same,GI50,SN12C renal,23.7 µM
same,TGI,SN12C renal,> 100 µM
same,GI50,MOLT-4 leukemia,18.2 µM
same,TGI,MOLT-4 leukemia,44.4 µM
same,GI50,CCRF-CEM leukemia,3.38 µM
same,TGI,CCRF-CEM leukemia,13.1 µM
same,GI50,MDA-MB-435,16.5 µM
same,TGI,MDA-MB-435,31 µM
same,GI50,UACC-62 melanoma,16.3 µM
same,TGI,UACC-62 melanoma,34.2 µM
same,GI50,MCF7 breast,5.69 µM
same,TGI,MCF7 breast,22.2 µM
same,GI50,PC-3 prostate,17.2 µM
same,TGI,PC-3 prostate,34.9 µM
same,GI50,OVCAR-8 ovarian,15 µM
same,TGI,OVCAR-8 ovarian,28.3 µM
same,GI50,TK-10 renal,22.1 µM
same,TGI,TK-10 renal,66.3 µM
same,GI50,EKVX NSCLC,15.6 µM
same,TGI,EKVX NSCLC,29.1 µM
same,GI50,A498 renal,13 µM
same,TGI,A498 renal,26 µM
same,GI50,UACC-257 melanoma,14.5 µM
same,TGI,UACC-257 melanoma,28.4 µM
same,GI50,786-0 renal,20.9 µM
same,TGI,786-0 renal,53.3 µM
same,GI50,IGROV1 ovarian,15.5 µM
same,TGI,IGROV1 ovarian,31.8 µM
same,GI50,SR leukemia,13.1 µM
same,TGI,SR leukemia,60.8 µM
